Literature values in paper PMC8568133, “Evaluation of bisphenylthiazoles as a promising class for combating multidrug-resistant fungal infections” (PLoS ONE, 2021).
In brackets after ≈: the same amount, converted by molar mass.

Experiments:
MRSA USA300 = system: MRSA USA300; design: method as in PMID 30247876; details: previous observations; cited from earlier work
[1] = design: method as in PMID 30247876; details: reactive metabolite formation, previous observations; cited from earlier work

Structure (SMILES): Cc1nc(-c2ccc(-c3ccccc3)cc2)sc1-c1nnc(NN)o1 [Compound 1]
- MIC (MRSA) (MRSA USA300): 3 µg/mL (≈ 8.59 µM)
- GSH trap [1]: +ve
